Changes are numbered by the printed parent chain. pKi: −log10 of the molar value. Read-outs that look alike come from different tables or passages of the source.
Tests used:
CDK1B [1] = molecular target: T1, CDK1B (Homo sapiens, UniProt P06493); test: biochemical
CDK6/D3 = CDK6/D3 (Homo sapiens, UniProt Q00534); test: ADP Glo kinase assay, CDK6/D3; format: biochemical; conditions: CDK6D3; for pKi: apparent Ki calculated from Km (ATP) and IC50, read-out: CDK inhibition Ki; for remaining activity at 1 µM: compound at 1 μM (values marked *), read-out: residual enzymatic activity (%) at 1 μM*; for remaining activity at 10 µM: compound at 10 μM, read-out: residual enzymatic activity (%) at 10 μM
Chain of CDK6/D3 (Q00534 whole entry, species assumed): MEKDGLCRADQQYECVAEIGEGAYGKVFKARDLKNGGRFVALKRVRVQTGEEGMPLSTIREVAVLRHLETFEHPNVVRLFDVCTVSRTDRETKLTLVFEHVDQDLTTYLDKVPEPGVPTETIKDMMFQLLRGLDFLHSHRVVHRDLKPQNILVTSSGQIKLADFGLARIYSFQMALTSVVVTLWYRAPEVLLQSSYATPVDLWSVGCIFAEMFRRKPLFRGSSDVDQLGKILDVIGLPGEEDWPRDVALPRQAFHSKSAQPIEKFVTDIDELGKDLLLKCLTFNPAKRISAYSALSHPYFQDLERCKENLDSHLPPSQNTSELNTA
Chain of CDK6/D3 (P30281 whole entry partner, species assumed): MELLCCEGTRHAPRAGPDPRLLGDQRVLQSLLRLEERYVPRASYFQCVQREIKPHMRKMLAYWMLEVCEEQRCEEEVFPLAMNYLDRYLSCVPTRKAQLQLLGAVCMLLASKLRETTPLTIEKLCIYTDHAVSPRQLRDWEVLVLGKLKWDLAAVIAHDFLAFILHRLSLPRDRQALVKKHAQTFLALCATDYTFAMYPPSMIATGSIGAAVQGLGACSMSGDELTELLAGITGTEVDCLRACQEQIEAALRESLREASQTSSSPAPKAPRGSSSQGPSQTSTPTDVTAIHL
Procedure: (§1) Inhibition of FLT3(WT), FLT3(ITD) and FLT3(D835Y) and CDKs were determined using ADP Glo Kinase assays (Promega Corporation, Madison, WI, USA). […] Similarly, kinase reaction for CDK4/D1 and CDK6/D3 was performed with reaction buffer (40 nM Tris base pH 7.5, 20 mM MgCl2, 0.4 mM DTT), 0.1 mg/ml BSA and RB-CTF substrate (retinoblastoma protein1 C-terminal fraction). For CDK9/CyclinT1, the kinase reaction was performed with the standard assay buffer and Kinase Dilution Buffer and RBER-IRStide substrate. Half-maximal inhibition (IC50) values were calculated using a 4-parameter logistic non-linear regression model with Graphpad prism (Version 6.0). Apparent inhibition constants (Ki) values were calculated from Km (ATP) and IC50 values for the respective kinases.

MV-4-11 = test: Proliferation assay (resazurin/MTT), MV-4-11; format: cell-based; conditions: Homo sapiens, MV4-11, read-out: 72 h Growth inhibition GI50, MV-4-11 cells
U937 = test: Proliferation assay (resazurin/MTT), U937; format: cell-based; conditions: Homo sapiens, U-937, read-out: 72 h Growth inhibition GI50, U937 cells
CDK7HMAT1 = CDK7HMAT1 (Homo sapiens, UniProt P50613);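 note: kinase activity measured with an ADP-Glo luminescent kinase assay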
Chain of CDK7HMAT1 (P50613 whole entry): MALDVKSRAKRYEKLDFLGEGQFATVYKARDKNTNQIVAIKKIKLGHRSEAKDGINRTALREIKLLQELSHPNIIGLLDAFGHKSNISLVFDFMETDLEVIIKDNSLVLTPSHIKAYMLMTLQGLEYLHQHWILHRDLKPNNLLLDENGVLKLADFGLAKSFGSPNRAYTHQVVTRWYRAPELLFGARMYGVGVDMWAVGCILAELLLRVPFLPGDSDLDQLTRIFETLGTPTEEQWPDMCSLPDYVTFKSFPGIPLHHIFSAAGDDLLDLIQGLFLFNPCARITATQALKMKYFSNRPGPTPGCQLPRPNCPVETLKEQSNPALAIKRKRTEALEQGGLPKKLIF
Chain of CDK7HMAT1 (P51946 whole entry partner): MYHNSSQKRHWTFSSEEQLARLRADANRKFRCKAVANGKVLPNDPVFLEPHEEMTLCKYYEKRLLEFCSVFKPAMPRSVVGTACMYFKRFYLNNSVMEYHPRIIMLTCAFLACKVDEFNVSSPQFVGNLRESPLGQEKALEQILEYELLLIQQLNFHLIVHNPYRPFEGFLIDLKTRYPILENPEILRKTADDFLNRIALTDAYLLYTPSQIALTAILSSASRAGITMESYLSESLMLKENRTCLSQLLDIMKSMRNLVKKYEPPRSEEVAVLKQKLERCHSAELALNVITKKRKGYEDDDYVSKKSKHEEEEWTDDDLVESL
Chain of CDK7HMAT1 (P51948 whole entry partner): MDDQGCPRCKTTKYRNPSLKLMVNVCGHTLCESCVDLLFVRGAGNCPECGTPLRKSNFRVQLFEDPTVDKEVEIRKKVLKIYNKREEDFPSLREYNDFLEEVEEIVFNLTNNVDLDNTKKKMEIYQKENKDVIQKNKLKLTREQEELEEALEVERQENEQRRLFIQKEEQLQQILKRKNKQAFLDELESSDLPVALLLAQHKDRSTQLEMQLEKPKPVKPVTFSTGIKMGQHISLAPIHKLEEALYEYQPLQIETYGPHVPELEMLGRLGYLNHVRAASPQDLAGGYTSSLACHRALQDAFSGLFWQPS

CDK2E1 = CDK2E1 (Homo sapiens, UniProt P24941)
CDK4/D1 = CDK4/D1 (Homo sapiens, UniProt P11802); test: ADP Glo kinase assay, CDK4/D1; format: biochemical; conditions: CDK4D1; for remaining activity at 10 µM: compound at 10 μM, read-out: residual enzymatic activity (%) at 10 μM; for remaining activity at 1 µM: compound at 1 μM (values marked *), read-out: residual enzymatic activity (%) at 1 μM*; for pKi: apparent Ki calculated from Km (ATP) and IC50, read-out: CDK inhibition Ki
Chain of CDK4/D1 (P11802 whole entry, species assumed): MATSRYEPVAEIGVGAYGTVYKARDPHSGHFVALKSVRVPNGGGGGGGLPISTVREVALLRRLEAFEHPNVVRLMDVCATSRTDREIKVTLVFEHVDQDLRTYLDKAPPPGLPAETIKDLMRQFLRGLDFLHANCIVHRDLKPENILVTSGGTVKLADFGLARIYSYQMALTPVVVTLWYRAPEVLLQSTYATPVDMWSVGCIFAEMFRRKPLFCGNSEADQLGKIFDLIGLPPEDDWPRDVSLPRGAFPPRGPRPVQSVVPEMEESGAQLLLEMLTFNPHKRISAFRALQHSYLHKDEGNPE
Chain of CDK4/D1 (P24385 whole entry partner, species assumed): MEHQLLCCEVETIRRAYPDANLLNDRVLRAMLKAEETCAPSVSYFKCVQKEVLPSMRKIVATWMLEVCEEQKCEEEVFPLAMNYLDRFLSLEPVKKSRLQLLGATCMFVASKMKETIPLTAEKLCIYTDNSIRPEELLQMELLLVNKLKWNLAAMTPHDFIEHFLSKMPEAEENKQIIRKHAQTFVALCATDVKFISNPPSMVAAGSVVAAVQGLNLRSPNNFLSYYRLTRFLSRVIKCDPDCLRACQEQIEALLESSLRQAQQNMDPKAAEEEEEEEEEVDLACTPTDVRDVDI
Procedure: as §1

CDK9/CyclinT1 = CDK9/CyclinT1 (Homo sapiens, UniProt P50750); test: ADP Glo kinase assay, CDK9/CyclinT1; format: biochemical; conditions: CDK9T1; for remaining activity at 10 µM: compound at 10 μM, read-out: residual enzymatic activity (%) at 10 μM; for pKi: apparent Ki calculated from Km (ATP) and IC50, read-out: CDK inhibition Ki
Chain of CDK9/CyclinT1 (P50750 whole entry, species assumed): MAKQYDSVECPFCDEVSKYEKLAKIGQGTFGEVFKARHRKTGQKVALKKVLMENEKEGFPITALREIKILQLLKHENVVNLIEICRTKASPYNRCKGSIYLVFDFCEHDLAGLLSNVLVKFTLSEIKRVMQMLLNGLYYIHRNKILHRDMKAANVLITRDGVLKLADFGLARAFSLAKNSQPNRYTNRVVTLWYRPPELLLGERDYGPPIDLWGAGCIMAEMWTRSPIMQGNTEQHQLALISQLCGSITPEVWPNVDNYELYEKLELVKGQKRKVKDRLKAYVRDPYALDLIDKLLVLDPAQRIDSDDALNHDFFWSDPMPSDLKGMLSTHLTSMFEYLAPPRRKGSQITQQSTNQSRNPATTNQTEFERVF
Chain of CDK9/CyclinT1 (O60563 whole entry partner, species assumed): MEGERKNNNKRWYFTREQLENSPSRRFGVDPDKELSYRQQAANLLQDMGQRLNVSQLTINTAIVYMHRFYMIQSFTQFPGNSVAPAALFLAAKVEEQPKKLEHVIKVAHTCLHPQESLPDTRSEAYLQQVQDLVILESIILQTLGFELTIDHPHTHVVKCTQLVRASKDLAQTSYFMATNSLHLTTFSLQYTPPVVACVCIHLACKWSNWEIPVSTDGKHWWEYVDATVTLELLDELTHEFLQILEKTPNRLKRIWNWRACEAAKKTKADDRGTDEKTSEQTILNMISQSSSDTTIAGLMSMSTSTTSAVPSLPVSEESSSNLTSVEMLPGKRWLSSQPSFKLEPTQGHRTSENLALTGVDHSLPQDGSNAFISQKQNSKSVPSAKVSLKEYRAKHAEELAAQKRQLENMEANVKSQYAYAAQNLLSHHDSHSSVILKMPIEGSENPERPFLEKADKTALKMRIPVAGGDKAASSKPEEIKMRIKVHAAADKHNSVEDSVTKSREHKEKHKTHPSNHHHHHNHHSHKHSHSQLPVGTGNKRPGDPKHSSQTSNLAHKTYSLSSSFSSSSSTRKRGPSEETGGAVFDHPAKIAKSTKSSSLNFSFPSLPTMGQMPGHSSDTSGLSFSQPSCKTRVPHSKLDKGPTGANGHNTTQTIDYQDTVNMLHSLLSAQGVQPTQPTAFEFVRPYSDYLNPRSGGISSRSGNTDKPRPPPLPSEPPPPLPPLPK

CDK1B [2] = molecular target: T1, CDK1B
FLT3(D835Y) = molecular target: T2, FLT3(D835Y) (Homo sapiens, UniProt P36888, D835Y); test: ADP Glo kinase assay, FLT3(D835Y); format: biochemical; conditions: apparent Ki calculated from Km (ATP) and IC50, read-out: FLT3 inhibition Ki
T2 sequence (P36888 27-993 D835Y): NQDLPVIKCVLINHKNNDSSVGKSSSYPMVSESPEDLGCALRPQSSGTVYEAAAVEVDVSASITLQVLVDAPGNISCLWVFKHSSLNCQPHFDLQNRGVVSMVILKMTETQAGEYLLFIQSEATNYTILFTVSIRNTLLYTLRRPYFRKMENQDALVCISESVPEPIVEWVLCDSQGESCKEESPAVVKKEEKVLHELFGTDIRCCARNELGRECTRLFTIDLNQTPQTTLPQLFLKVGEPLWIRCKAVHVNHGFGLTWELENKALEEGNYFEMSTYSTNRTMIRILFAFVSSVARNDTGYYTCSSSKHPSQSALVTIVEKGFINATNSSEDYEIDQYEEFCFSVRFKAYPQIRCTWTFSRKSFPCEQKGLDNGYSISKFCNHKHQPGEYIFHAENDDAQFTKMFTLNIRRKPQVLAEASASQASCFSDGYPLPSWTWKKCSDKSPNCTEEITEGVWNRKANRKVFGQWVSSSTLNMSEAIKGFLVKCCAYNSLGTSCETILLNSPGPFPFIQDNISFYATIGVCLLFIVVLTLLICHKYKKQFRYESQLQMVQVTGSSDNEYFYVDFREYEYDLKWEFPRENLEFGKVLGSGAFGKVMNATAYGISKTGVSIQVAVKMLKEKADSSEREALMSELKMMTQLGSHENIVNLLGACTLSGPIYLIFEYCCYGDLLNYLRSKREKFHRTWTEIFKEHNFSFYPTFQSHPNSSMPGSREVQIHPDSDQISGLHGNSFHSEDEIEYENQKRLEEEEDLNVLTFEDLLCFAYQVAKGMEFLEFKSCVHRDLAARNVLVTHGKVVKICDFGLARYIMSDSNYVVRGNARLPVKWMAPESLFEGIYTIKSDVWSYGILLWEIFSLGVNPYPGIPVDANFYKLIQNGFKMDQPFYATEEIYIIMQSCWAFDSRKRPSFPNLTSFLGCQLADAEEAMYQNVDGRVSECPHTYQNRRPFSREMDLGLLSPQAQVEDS
Procedure: (§2) Inhibition of FLT3(WT), FLT3(ITD) and FLT3(D835Y) and CDKs were determined using ADP Glo Kinase assays (Promega Corporation, Madison, WI, USA). […] The kinase reactions are run for an optimised time period (FLT3-WT: 120 min, FLT3-ITD: 80 min, FLT3-D835Y: 100 min) at room temperature and then the reaction was stopped by adding 5 μL of ADP Glo reagent. […] Positive and negative controls were performed in 0.5% DMSO in the presence and absence of each FLT3 kinase, respectively. […] Half-maximal inhibition (IC50) values were calculated using a 4-parameter logistic non-linear regression model with Graphpad prism (Version 6.0). Apparent inhibition constants (Ki) values were calculated from Km (ATP) and IC50 values for the respective kinases.

FLT3(WT) = molecular target: T3, FLT3(WT) (Homo sapiens, UniProt P36888); test: ADP Glo kinase assay, FLT3(WT); format: biochemical; conditions: for pKi: apparent Ki calculated from Km (ATP) and IC50, read-out: FLT3 inhibition Ki
T3 sequence (P36888 27-993): T2 sequence (P36888 27-993 D835Y) with Y809D
Procedure: as §2

FLT3(ITD) = molecular target: T4, FLT3(ITD) (Homo sapiens, UniProt P36888); test: ADP Glo kinase assay, FLT3(ITD); format: biochemical; conditions: apparent Ki calculated from Km (ATP) and IC50, read-out: FLT3 inhibition Ki
T4 sequence (P36888 1-993): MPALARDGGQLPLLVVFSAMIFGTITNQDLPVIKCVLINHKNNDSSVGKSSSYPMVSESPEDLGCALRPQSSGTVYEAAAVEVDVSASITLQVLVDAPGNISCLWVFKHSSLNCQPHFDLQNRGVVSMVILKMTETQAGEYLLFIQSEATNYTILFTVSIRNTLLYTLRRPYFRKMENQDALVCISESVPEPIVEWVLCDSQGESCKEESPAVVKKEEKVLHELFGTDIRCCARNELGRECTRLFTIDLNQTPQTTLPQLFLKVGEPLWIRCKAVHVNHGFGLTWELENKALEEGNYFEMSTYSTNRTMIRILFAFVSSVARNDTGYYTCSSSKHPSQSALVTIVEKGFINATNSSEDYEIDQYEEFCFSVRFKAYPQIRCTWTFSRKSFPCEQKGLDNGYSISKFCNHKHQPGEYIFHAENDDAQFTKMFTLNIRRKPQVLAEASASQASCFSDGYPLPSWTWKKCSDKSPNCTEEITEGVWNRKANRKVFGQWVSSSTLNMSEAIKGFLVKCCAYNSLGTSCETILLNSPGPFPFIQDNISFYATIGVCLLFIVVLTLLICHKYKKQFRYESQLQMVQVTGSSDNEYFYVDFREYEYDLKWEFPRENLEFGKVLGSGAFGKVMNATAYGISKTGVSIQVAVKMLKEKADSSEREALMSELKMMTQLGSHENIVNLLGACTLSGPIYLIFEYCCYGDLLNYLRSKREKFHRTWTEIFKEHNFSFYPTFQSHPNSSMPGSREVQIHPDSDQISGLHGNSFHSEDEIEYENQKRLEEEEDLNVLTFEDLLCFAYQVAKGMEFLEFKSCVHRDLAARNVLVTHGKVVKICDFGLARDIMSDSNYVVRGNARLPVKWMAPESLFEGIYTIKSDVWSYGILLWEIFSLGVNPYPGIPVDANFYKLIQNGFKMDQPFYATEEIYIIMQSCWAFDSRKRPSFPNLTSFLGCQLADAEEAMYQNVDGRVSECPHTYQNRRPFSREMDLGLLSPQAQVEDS

T1 sequence (P06493 whole entry): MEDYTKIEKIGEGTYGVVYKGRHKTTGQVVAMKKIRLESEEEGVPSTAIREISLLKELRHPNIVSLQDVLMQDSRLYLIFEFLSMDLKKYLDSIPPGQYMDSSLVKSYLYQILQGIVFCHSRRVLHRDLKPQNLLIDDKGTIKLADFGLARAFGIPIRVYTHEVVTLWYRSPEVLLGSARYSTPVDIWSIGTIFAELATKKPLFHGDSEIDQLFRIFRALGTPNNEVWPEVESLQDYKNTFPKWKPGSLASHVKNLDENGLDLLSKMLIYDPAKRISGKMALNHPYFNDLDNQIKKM
T1 sequence (P14635 whole entry partner): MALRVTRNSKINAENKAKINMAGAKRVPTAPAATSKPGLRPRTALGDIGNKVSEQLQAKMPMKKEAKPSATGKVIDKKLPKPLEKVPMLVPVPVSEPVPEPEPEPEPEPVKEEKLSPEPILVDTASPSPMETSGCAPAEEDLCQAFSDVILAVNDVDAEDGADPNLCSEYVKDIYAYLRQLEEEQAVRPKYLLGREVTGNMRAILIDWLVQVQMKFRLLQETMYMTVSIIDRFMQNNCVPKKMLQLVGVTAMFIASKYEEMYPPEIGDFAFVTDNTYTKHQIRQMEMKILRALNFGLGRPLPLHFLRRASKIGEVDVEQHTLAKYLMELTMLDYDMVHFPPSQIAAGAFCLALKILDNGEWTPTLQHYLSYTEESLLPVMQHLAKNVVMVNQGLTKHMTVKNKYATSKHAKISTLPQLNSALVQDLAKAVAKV

SMILES	pKi (CDK1B [1])	pKi (CDK6/D3)	GI50 (MV-4-11) [nM]	GI50 (U937) [nM]	activity (CDK7HMAT1; 10 µM) [%]	activity (CDK2E1; 1 µM) [%]	remaining activity at 10 µM (CDK4/D1) [%]	remaining activity at 10 µM (CDK9/CyclinT1) [%]	pKi (FLT3(D835Y))	pKi (FLT3(WT))	pKi (FLT3(ITD))	pKi (CDK9/CyclinT1)	other results
c1ccn2c(-c3ccnc(Nc4ccc(N5CCOCC5)cn4)n3)cnc2c1 [Cmpd 4, 4-(Imidazo[1,2-a]pyridin-3-yl)-N-(5-morpholinopyridin-2-yl)pyrimidin-2-amine]	5.83	5.54	38	3360	74	72	38	28	–	–	–	–	–
CC(=O)N1CCN(c2ccc(Nc3nccc(-c4cnc5ccc(I)cn45)n3)nc2)CC1 [Cmpd 43, 1-(4-(6-((4-(6-Iodoimidazo[1,2-a]pyridin-3-yl)pyrimidin-2-yl)amino)pyridin-3-yl)piperazin-1-yl)ethan-1-one]	–	–	6	3570	–	75	–	–	7.74	7.42	7.36	6.32	activity (CDK1B [2]; 1 µM): 92%; remaining activity at 1 µM (CDK6/D3): 70%; activity (CDK7HMAT1; 1 µM): 75%; remaining activity at 1 µM (CDK4/D1): 70%
CC(=O)N1CCN(c2ccc(Nc3nccc(-c4cnc5ccccn45)n3)nc2)CC1 [Cmpd 3, 1-(4-(6-((4-(Imidazo[1,2-a]pyridin-3-yl)pyrimidin-2-yl)amino)pyridin-3-yl)piperazin-1-yl)ethan-1-one]	5.46	< 5.00	20	2850	–	–	–	–	–	–	–	6.28	activity (CDK2E1; 10 µM): 49%; pKi (CDK4/D1): 5.70
CC(=O)N1CCN(c2ccc(Nc3nccc(-c4cnc5ccc(Cl)cn45)n3)nc2)CC1 [Cmpd 9, 1-(4-(6-((4-(6-Chloroimidazo[1,2-a]pyridin-3-yl)pyrimidin-2-yl)amino)pyridin-3-yl)piperazin-1-yl)ethan-1-one]	–	–	15	797	76	64	46	28	8.05	6.93	7.52	–	activity (CDK1B [2]; 10 µM): 94%; remaining activity at 10 µM (CDK6/D3): 32%
CC(=O)N1CCN(c2ccc(Nc3nccc(-c4cnc5ccc(C)cn45)n3)nc2)CC1 [Cmpd 13, 1-(4-(6-((4-(6-Methylimidazo[1,2-a]pyridin-3-yl)pyrimidin-2-yl)amino)pyridin-3-yl)piperazin-1-yl)ethan-1-one]	5.61	5.62	6	1470	77	52	–	–	–	–	–	6.79	pKi (CDK4/D1): 6.38
c1ccn2c(-c3ccnc(Nc4ccc(N5CCCCC5)cn4)n3)cnc2c1 [Cmpd 5, 4-(Imidazo[1,2-a]pyridin-3-yl)-N-(5-(piperidin-1-yl)pyridin-2-yl)pyrimidin-2-amine]	–	–	75	6200	84	81	53	28	7.35	–	7.20	–	activity (CDK1B [2]; 10 µM): 48%; remaining activity at 10 µM (CDK6/D3): 23%; remaining activity at 1 µM (FLT3(WT); compound at 1 μM, read-out: residual enzymatic activity (%) at 1 μM): 45%
CS(=O)(=O)N1CCN(c2ccc(Nc3nccc(-c4cnc5ccc(Br)cn45)n3)nc2)CC1 [Cmpd 50, 4-(6-Bromoimidazo[1,2-a]pyridin-3-yl)-N-(5-(4-(methylsulfonyl)piperazin-1-yl)pyridin-2-yl)pyrimidin-2-amine]	–	–	7	127	–	74	–	–	7.82	7.46	6.74	–	activity (CDK1B [2]; 1 µM): 62%; remaining activity at 1 µM (CDK6/D3): 63%; activity (CDK7HMAT1; 1 µM): 57%; remaining activity at 1 µM (CDK4/D1): 40%; remaining activity at 1 µM (CDK9/CyclinT1; compound at 1 μM (values marked *), read-out: residual enzymatic activity (%) at 1 μM*): 48%

From patent US12398132B2, “Derivatives of 4-(imidazo[1,2-a]pyridin-3-yl)-n-(pyridinyl)pyrimidin-2-amine as therapeutic agents” (AUCENTRA THERAPEUTICS PTY LTD, priority 2019, dated 2025)
